For test [1], the target named is T1, 5-hydroxytryptamine receptor 3A (Homo sapiens, UniProt P46098).
T1 sequence (P46098 whole entry): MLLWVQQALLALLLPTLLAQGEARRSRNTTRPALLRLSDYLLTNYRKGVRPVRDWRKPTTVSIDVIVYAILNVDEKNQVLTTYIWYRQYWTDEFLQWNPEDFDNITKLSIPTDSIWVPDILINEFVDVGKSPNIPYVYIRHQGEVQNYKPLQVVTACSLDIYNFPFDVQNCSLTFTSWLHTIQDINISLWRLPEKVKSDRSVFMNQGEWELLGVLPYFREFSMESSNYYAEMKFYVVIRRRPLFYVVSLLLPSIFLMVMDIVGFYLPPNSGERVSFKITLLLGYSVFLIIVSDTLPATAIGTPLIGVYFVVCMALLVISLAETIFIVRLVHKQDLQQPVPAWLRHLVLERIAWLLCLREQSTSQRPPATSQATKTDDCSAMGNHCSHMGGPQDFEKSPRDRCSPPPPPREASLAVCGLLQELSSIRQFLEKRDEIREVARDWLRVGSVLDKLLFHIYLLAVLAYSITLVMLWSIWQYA
The class given is functional.

Test [2] deals with Gamma-aminobutyric acid receptor subunit alpha-1 (Rattus norvegicus, UniProt P62813).
Gamma-aminobutyric acid receptor subunit alpha-1, sequence (P62813 whole entry): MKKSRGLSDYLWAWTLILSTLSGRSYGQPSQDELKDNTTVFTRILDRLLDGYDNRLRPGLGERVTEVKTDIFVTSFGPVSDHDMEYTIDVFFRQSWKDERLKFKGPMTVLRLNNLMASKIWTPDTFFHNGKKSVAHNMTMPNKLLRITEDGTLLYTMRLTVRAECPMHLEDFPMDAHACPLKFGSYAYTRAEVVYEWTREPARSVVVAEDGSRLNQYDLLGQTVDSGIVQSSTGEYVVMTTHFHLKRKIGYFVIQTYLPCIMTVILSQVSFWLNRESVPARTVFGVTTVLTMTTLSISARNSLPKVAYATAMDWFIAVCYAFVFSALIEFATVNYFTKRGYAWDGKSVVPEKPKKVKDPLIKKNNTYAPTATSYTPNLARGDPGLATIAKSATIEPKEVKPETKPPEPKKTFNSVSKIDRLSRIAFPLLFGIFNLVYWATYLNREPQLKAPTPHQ
Test [3] has as its target T2, Amine oxidase [flavin-containing] A (Homo sapiens, UniProt P21397).
T2 sequence (P21397 whole entry): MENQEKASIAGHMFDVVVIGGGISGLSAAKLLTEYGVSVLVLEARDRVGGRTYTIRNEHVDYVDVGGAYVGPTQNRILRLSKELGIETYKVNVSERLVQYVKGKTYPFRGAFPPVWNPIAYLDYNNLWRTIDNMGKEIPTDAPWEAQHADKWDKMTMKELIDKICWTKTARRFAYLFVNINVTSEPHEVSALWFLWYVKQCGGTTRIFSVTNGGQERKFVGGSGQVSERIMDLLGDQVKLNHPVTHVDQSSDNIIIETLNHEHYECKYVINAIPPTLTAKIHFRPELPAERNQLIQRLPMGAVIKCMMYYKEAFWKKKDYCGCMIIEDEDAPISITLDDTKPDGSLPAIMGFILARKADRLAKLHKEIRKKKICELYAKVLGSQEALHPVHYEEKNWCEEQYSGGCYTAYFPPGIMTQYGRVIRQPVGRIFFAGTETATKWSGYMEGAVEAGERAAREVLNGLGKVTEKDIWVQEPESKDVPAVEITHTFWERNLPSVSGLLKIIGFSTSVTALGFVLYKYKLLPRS
The class given is functional.

The target in test [4] is T3, Alpha-2A adrenergic receptor (Homo sapiens, UniProt P08913).
T3 sequence (P08913 whole entry): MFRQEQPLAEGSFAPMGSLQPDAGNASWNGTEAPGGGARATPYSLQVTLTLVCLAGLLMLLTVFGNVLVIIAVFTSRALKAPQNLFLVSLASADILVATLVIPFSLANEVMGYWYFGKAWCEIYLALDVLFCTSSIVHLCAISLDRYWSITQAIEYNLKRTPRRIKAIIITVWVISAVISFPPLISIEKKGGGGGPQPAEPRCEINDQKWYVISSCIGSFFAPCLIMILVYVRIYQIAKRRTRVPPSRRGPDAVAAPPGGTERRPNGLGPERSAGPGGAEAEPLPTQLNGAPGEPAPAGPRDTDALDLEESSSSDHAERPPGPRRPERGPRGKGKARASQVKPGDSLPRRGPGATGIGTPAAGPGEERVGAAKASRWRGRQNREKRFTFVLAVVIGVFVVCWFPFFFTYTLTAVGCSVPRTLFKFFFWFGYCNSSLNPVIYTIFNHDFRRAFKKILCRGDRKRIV
The class given is functional, cell-based.

The next test concerns the target T4, Endothelin-1 receptor (Homo sapiens, UniProt P25101).
T4 sequence (P25101 whole entry): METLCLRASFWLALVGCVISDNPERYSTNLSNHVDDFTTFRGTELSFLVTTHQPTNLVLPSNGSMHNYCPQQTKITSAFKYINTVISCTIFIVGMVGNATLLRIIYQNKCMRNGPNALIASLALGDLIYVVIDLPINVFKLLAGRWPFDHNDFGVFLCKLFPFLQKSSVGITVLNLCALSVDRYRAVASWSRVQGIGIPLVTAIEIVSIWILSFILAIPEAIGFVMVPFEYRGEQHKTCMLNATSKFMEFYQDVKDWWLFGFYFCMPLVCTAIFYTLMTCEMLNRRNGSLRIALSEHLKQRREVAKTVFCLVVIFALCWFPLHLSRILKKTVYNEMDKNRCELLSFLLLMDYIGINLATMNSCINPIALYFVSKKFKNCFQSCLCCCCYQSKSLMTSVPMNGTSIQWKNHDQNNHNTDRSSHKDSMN

Test [5] concerns the target Beta-1 adrenergic receptor (Homo sapiens, UniProt P08588). In kind it is functional.
Test [6] addresses T5, Equilibrative nucleoside transporter 1 (Homo sapiens, UniProt Q99808).
T5 sequence (Q99808 whole entry): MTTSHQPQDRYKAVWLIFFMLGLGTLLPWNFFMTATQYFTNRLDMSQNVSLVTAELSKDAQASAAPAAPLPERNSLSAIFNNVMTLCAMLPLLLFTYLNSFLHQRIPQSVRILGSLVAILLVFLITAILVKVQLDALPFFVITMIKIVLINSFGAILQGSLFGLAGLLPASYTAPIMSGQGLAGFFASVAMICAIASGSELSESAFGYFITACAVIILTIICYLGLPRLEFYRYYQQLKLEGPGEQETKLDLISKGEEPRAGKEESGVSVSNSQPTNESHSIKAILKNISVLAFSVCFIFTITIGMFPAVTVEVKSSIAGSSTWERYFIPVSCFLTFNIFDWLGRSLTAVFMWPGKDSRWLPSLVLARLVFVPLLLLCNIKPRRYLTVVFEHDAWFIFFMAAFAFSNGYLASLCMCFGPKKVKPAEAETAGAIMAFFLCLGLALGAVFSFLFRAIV

Another test has as its target Motilin receptor (Homo sapiens, UniProt O43193).
Another test concerns the target D(3) dopamine receptor (Homo sapiens, UniProt P35462).

Each structure is given as a SMILES string.
Further: assay procedure not described here.

D(3) dopamine receptor, sequence (P35462 whole entry): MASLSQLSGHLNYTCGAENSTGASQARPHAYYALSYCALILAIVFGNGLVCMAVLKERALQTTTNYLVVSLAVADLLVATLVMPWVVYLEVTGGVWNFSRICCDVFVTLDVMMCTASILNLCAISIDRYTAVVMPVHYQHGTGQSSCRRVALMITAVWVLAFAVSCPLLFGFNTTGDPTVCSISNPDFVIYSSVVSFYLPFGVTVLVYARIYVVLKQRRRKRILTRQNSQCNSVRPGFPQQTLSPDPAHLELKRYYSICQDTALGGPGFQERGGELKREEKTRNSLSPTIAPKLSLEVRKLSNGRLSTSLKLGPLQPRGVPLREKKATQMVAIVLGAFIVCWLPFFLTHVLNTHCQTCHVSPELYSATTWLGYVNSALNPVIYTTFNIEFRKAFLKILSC
Motilin receptor, sequence (O43193 whole entry): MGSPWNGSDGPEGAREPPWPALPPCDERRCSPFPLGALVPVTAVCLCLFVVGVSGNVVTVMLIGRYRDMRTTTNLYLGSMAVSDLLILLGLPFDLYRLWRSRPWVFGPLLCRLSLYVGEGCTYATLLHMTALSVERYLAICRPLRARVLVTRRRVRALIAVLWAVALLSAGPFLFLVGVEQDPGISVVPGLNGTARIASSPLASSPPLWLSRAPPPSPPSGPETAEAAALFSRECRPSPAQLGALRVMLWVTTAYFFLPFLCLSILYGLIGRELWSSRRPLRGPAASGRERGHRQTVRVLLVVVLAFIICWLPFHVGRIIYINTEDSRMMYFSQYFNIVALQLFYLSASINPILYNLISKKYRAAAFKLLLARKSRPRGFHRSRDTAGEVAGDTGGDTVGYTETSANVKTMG
Beta-1 adrenergic receptor, sequence (P08588 whole entry): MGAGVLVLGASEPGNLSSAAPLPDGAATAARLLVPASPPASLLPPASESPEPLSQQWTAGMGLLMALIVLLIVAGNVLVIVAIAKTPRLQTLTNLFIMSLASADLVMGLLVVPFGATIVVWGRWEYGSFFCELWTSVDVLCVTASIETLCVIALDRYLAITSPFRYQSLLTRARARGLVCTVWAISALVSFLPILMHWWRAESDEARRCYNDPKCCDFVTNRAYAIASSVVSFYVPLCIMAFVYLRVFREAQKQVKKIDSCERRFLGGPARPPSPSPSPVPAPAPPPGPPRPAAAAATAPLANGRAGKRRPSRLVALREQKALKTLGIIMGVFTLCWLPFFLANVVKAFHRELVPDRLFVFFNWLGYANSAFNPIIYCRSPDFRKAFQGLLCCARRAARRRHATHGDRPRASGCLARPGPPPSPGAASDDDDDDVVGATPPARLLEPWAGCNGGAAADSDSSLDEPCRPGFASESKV

In general, AC50 refers to the concentration at which the activity in the assay is half-maximal. A low value points to greater potency. As to `CCCCCCC(C)(C)c1cc(O)c2c(c1)OC(C)(C)C1CCC(=O)CC21` (stereo unspecified) [NABILONE], the AC50 (in [1]; in test [2]; in [3]; in test [4]; at Endothelin-1 receptor; in test [5]) was above 30 µM each time. Also, the AC50 (in test [6]; on Motilin receptor; at D(3) dopamine receptor) was above 30 µM in each case.

For the molecule `O=C(O)CCCc1ccccc1` [PHENYLBUTANOIC ACID], the AC50 in test [1] was above 30 µM; in test [2], above 30 µM; in test [3], above 30 µM; in [4], above 30 µM; on Endothelin-1 receptor, above 30 µM; in test [5] it was above 10 µM. Besides, the figures for the concentration at half-maximal activity (AC50) (in [6]; on Motilin receptor; at D(3) dopamine receptor) were above 30 µM, above 10 µM and above 30 µM, respectively.

Turning to `Cc1nc2ccc(CN(C)c3ccc(C(=O)N[C@@H](CCC(=O)O)C(=O)O)s3)cc2c(=O)[nH]1` [RALTITREXED], the AC50 (in test [1]; in test [2]; in test [3]; in [4]; at Endothelin-1 receptor; in test [5]) was above 30 µM each time. Besides, the AC50 (in test [6]; on Motilin receptor; at D(3) dopamine receptor) was above 30 µM each time.

`CCCCCN(C)CCC(O)(P(=O)(O)O)P(=O)(O)O` [IBANDRONIC ACID]: the AC50 (in [1]; in [2]; in test [3]; in test [4]; on Endothelin-1 receptor; in test [5]) was above 30 µM in each case. In addition, the AC50 (in test [6]; on Motilin receptor; at D(3) dopamine receptor) was above 30 µM each time.

On to `CCC(C(=O)O)c1ccc(CC(C)C)cc1` (stereo unspecified) [BUTIBUFEN], for which the AC50 (in test [1]; in [2]; in test [3]; in test [4]; on Endothelin-1 receptor; in test [5]) was above 30 µM in each case. Further, the concentration at half-maximal activity (AC50) (in [6]; at Motilin receptor; at D(3) dopamine receptor) was above 30 µM each time.

Regarding `NC(=O)C[S+]([O-])C(c1ccccc1)c1ccccc1` (stereo unspecified) [MODAFINIL], the AC50 in test [1] was above 10 µM; in test [2] it was above 10 µM; in test [3] it was above 10 µM; in [4], above 10 µM; on Endothelin-1 receptor, above 30 µM; in test [5] it was above 10 µM. Moreover, the concentration at half-maximal activity (AC50) was above 30 µM in [6], above 10 µM on Motilin receptor and above 10 µM at D(3) dopamine receptor.

Turning to `CCCCC(C)(O)C/C=C/[C@H]1[C@H](O)CC(=O)[C@@H]1CCCCCCC(=O)OC` (stereo partly specified) [MISOPROSTOL], the half-maximal activity concentration (AC50) (in test [1]; in test [2]; in [3]; in [4]; on Endothelin-1 receptor; in test [5]) was above 30 µM in each case. Further, the AC50 (in test [6]; at Motilin receptor; on D(3) dopamine receptor) was above 30 µM each time.

`COc1c(C)c2c(c(O)c1C/C=C(\C)CCC(=O)OCCN1CCOCC1)C(=O)OC2` [MYCOPHENOLATE MOFETIL]: the AC50 (in test [1]; in test [2]; in [3]; in test [4]; at Endothelin-1 receptor; in test [5]) was above 30 µM in each case. For the same molecule, the AC50 (in [6]; at Motilin receptor; on D(3) dopamine receptor) was above 30 µM in each case.

As for `CCOc1cc(N)c([N+](=O)[O-])cc1C(=O)NC1CCN(CC2CC=CCC2)CC1` (stereo unspecified) [CINITAPRIDE], the AC50 is 22 µM in test [1]; above 30 µM in [2]; above 30 µM in test [3]; above 30 µM in test [4]; above 30 µM on Endothelin-1 receptor; above 30 µM in test [5]. Besides, the results for the AC50 (in test [6]; on Motilin receptor; at D(3) dopamine receptor) were above 30 µM, 8.1 µM and 0.038 µM, respectively.

In the case of `C#C[C@]1(O)CC[C@H]2[C@@H]3CCC4=CCCC[C@@H]4[C@H]3CC[C@@]21C` [LYNESTRENOL], the AC50 in test [1] was above 30 µM; in test [2], above 30 µM; in [3], 0.3 µM; in test [4], above 30 µM; on Endothelin-1 receptor, above 30 µM; in test [5], above 30 µM. The half-maximal activity concentration (AC50) (in test [6]; on Motilin receptor; at D(3) dopamine receptor) was above 30 µM throughout.

As to `CC/C=C\C/C=C\C/C=C\CCCCCCCC(=O)O` [LINOLENIC ACID], the half-maximal activity concentration (AC50) (in test [1]; in test [2]; in [3]; in test [4]; on Endothelin-1 receptor; in [5]) was above 30 µM throughout. The half-maximal activity concentration (AC50) (in test [6]; at Motilin receptor; on D(3) dopamine receptor) was above 30 µM each time.

On to `C1=Cc2cccc(OCC3CNCCO3)c2C1` (stereo unspecified) [INDELOXAZINE], for which the AC50 was 25 µM in test [1]; above 30 µM in test [2]; above 30 µM in [3]; above 30 µM in [4]; above 30 µM at Endothelin-1 receptor; above 30 µM in test [5]. Moreover, the AC50 (in test [6]; at Motilin receptor; at D(3) dopamine receptor) was above 30 µM throughout.

As to `COc1ccc(C(=O)NCc2ccc(OCCN(C)C)cc2)cc1OC` [ITOPRIDE], the AC50 (in test [1]; in [2]; in [3]; in test [4]; at Endothelin-1 receptor; in [5]) was above 30 µM in each case. The AC50 was above 30 µM in test [6], above 30 µM at Motilin receptor and 20 µM on D(3) dopamine receptor.

With `CCOC(=O)[C@H](CCc1ccccc1)N[C@H]1CCCN2CCC[C@@H](C(=O)O)N2C1=O` [CILAZAPRIL], the AC50 (in [1]; in [2]; in test [3]; in [4]; at Endothelin-1 receptor; in test [5]) was above 30 µM each time. Also, the concentration at half-maximal activity (AC50) (in test [6]; on Motilin receptor; on D(3) dopamine receptor) was above 30 µM each time.
